Structures are written as SMILES.

Data on 5 compounds can be found in patent publication EP4818178A1, “PREPARATION AND USE OF PYRIMIDOTHIOPYRANONE KRAS MUTANT PROTEIN INHIBITOR” (Ya Therapeutics Inc, priority 2024, dated 2025).

One test concerns the target KRasG12D (Homo sapiens, UniProt P01116, G12D). Put plainly: KRAS inhibitory activity test, TR-FRET (inhibition of binding of KRasG12D to GTP, SOS/GTP nucleotide exchange). The note with it: read-out: IC50 values of the compounds for inhibiting KRAS enzymes, G12D. The class given is biochemical. In outline:
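KRasG12D preloaded with Bodipy-GDP plus Tb-streptavidin (3 nM Kras/0.5 nM Tb-SA/30 nM Bodipy-GDP) incubated 1 h at rt with compound (10-point 3-fold series). SOS/GTP mixture then added for 1 h at rt. TR-FRET signal read; IC50 calculated.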

Test [1] has as its system p-ERK in AsPC-1 (G12D) cells. Put plainly: Cellular p-ERK inhibition assay (HTRF). The class given is cell-based. Conditions: Homo sapiens, ASPC1, 1 hour with compound, read-out: IC50 (nM) of the compounds on the inhibition of p-ERK in tumor cells, AsPC-1. Here is the method: (§1) Cells were seeded in clear 96-well cell culture plates, with 80 µL of cell suspension per well, containing 8000 cells per well. The plates were incubated overnight at 37°C using a CO2 incubator. 2 µL of the compound was added to 78 µL of cell culture medium, mixed well, and then 20 µL of the compound solution was added to the corresponding wells of the cell culture plate. The plates were returned to the CO2 incubator for another hour. After incubation, the cell supernatant was discarded, and 50 µL of the […] was added to the cell culture plate. Add 1X cell lysis buffer to each well and incubate at room temperature with shaking for 30 minutes. Dilute Phospho-ERK1/2 Eu Cryptate antibody and Phospho-ERK1/2 d2 antibody 20-fold using detection buffer. Transfer 16 µL of cell lysis supernatant to each well in a new 384 white microplate, then add 2 µL of Phospho-ERK1/2 Eu Cryptate antibody diluent and 2 µL of Phospho-ERK1/2 d2 antibody diluent. Incubate at room temperature for at least 4 hours. After incubation, read the HTRF excitation (320 nm) and emission (615 nm, 665 nm) using a multilabel analyzer. Calculate the IC50 of the analyte. "++++" indicates IC50≤ 10 nM; "+++" indicates 10 nM < IC50≤ 100 nM; "++" indicates 100 nM < IC50≤ 2000 nM; "+" indicates 2000 nM < IC50. Table 2. IC50 (nM) of the compounds on the inhibition of p-ERK in tumor cells.

For test [2], the system named is p-ERK in HCT116 (G13D) cells. Put plainly: Cellular p-ERK inhibition assay (HTRF). The note with it: Homo sapiens, HCT-116, 1 hour with compound, read-out: IC50 (nM) of the compounds on the inhibition of p-ERK in tumor cells, HCT11 6. The class given is cell-based. Here is the method: as §1
Test [3] concerns p-ERK in PSN-1 (G12R) cells. Put plainly: Cellular p-ERK inhibition assay (HTRF). The class given is cell-based. Conditions: Homo sapiens, PSN1, 1 hour with compound, read-out: IC50 (nM) of the compounds on the inhibition of p-ERK in tumor cells, PSN-1. Here is the method: as §1

KRasG12D, sequence (P01116 1-188 isoform P01116-2 G12D): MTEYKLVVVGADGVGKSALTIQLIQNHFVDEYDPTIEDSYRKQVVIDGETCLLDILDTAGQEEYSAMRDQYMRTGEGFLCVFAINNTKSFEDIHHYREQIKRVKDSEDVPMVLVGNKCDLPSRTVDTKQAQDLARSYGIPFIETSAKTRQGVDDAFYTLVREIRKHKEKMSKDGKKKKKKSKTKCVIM

`Cc1cc(O)nc(C2Cc3nc(OC[C@@]45CCCN4C[C@H](F)C5)nc(N4CCC[C@@](C)(O)C4)c3CS2(=O)=O)c1C(F)(F)F` (stereo partly drawn) [Compound 8, 2-(((2R,7AS)-2-fluorotetrahydro-1H-pyrrolazin-7a(5H)-yl)methoxy)-4-((R)-3-hydroxy-3-methylpiperidin-1-yl)-7-(6-hydroxy-4-methyl-3-(trifluoromethyl)pyridin-2-yl)-7,8-dihydro-5H-thiopyrano[4,3-d]pyrimidine-6,6-dioxide]: the IC50 is at most 10 nM on KRasG12D, at most 10 nM in test [1], at most 10 nM in test [2] and 100 to 2000 nM in test [3].

`Cc1cc(O)c(F)c(C2Cc3nc(OC[C@@]45CCCN4C[C@H](F)C5)nc(N4C[C@H]5CC[C@@H](C4)N5)c3CS2(=O)=O)c1C(F)(F)F` (stereo partly drawn) [Compound 2, 4-((1R,5S)-3,8-diazabicyclo[3.2.1]octane-3-yl)-7-(2-fluoro-3-hydroxy-5-methyl-6-(trifluoromethyl)phenyl)-2-(((2R,7AS)-2-fluorotetrahydro-1H-pyrrolazin-7a(5H)-yl)methoxy)-7,8-dihydro-5H-thiopyrano[4,3-d]pyrimidine-6,6-dioxide]: the IC50 on KRasG12D is at most 10 nM; in test [1] it was at most 10 nM; in test [2], at most 10 nM; in test [3] it was 100 to 2000 nM.

On to `Cc1cc(N)nc(C2Cc3nc(OC[C@@]45CCCN4C[C@H](F)C5)nc(N4CCC[C@@](C)(O)C4)c3CS2(=O)=O)c1C(F)(F)F` (stereo partly drawn) [Compound 7, 7-(6-amino-4-methyl-3-(trifluoromethyl)pyridin-2-yl)-2-(((2R,7AS)-2-fluorotetrahydro-1H-pyrrolazin-7a(5H)-yl)methoxy)-4-((R)-3-hydroxy-3-methylpiperidin-1-yl)-7,8-d ihydro-5H-thiopyrano[4,3-d]pyrimidine 6,6-dioxide], for which the IC50 at KRasG12D is at most 10 nM; in test [1] it was at most 10 nM; in test [2] it was at most 10 nM; in test [3], 100 to 2000 nM.

As for `Cc1cc(O)nc(C2Cc3nc(OC[C@@]45CCCN4C[C@H](F)C5)nc(N4C[C@H]5CC[C@@H](C4)N5)c3CS2(=O)=O)c1C(F)(F)F` (stereo partly drawn) [Compound 4, 4-((1R,5S)-3,8-diazabicyclo[3.2.1]octane-3-yl)-2-(((2R,7AS)-2-fluorotetrahydro-1H-pyrrolazin-7a(5H)-yl)methoxy)-7-(6-hydroxy-4-methyl-3-(trifluoromethyl)pyridin-2-yl)-7,8-dihydro-5H-thiopyrano[4,3-d]pyrimidine-6,6-dioxide], the IC50 at KRasG12D is at most 10 nM; in test [1], at most 10 nM; in test [2], at most 10 nM; in test [3], 100 to 2000 nM.

Consider `Cc1cc(N)nc(C2Cc3nc(OC[C@@]45CCCN4C[C@H](F)C5)nc(N4C[C@H]5CC[C@@H](C4)N5)c3CS2(=O)=O)c1C(F)(F)F` (stereo partly drawn) [Compound 3, 7-(6-amino-4-methyl-3-(trifluoromethyl)pyridin-2-yl)-4-((1R,5S)-3,8-diazabicyclo[3. 2.1]octane-3-yl)-2-(((2R,7AS)-2-fluorotetrahydro-1H-pyrrolazin-7a(5H)-yl)methoxy) -7,8-dihydro-5H-thiopyrano[4,3-d]pyrimidine-6,6-dioxide], for which the IC50 is at most 10 nM at KRasG12D, at most 10 nM in test [1], at most 10 nM in test [2] and 100 to 2000 nM in test [3].
